In US20250313535A1, “ALPHA 4 BETA 7 INTEGRIN MODULATORS AND USES THEREOF” (DICE MOLECULES SV, INC., priority 2022, published 2025):
Where two headings read alike, the source gives them in different places.

Key:
α4β7 integrin = α4β7 integrin (Homo sapiens (Human), UniProt P13612+P26010); test: Integrin Adhesion Assay: Protocol 4 (MAdCAM-coated plate, RPMI-8866 cells with stable LOF mutation of the ITGB1 gene); assay type: cell-based
Outline: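 RPMI-8866 cells with CRISPR/Cas9 knockout of ITGB1 (2×10^6/mL) were added to MAdCAM-coated wells with compound (1% DMSO) in HEPES/NaCl buffer with 1 mM MnCl2, 0.1 mM CaCl2 and 1% BSA, then incubated 1 h at 37 °C. After four washes, adherent cells were quantified by CellTiter-Glo luminescence. Percent inhibition versus DMSO and control compound was fitted to 4-parameter curves.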

α4β1 integrin = α4β1 integrin (Homo sapiens (Human), UniProt P05556+P13612); test: Integrin Adhesion Assay: Protocol 5 (VCAM-coated plate, RPMI-8866 cells with stable LOF mutation of the ITGB7 gene); assay type: cell-based
Sequence of α4β1 integrin (P13612 34-1032): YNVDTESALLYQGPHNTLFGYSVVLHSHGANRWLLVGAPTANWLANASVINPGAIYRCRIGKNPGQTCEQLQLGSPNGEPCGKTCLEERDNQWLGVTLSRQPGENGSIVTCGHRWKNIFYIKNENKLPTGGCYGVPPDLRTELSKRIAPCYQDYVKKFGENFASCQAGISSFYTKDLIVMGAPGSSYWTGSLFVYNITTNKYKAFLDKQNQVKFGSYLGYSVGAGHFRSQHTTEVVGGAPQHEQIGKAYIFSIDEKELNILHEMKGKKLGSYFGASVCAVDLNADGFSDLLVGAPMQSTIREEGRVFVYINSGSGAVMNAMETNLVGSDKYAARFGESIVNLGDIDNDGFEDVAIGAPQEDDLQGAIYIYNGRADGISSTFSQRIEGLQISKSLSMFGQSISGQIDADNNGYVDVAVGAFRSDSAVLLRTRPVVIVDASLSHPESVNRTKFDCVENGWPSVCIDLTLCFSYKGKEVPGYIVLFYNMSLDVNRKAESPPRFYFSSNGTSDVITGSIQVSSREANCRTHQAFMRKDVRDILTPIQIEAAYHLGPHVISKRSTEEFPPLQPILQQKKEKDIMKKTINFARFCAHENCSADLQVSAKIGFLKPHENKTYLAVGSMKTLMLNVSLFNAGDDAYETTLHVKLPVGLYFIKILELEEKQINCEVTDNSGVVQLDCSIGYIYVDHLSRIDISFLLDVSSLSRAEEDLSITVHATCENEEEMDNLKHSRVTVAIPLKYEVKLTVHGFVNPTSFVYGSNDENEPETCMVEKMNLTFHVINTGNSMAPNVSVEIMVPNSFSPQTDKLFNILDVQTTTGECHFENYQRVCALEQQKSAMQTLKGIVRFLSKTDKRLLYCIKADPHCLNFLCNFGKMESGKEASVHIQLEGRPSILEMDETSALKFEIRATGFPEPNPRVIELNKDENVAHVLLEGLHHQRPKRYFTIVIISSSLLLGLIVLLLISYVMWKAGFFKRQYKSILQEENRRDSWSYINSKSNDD
Sequence of α4β1 integrin (P05556 21-798): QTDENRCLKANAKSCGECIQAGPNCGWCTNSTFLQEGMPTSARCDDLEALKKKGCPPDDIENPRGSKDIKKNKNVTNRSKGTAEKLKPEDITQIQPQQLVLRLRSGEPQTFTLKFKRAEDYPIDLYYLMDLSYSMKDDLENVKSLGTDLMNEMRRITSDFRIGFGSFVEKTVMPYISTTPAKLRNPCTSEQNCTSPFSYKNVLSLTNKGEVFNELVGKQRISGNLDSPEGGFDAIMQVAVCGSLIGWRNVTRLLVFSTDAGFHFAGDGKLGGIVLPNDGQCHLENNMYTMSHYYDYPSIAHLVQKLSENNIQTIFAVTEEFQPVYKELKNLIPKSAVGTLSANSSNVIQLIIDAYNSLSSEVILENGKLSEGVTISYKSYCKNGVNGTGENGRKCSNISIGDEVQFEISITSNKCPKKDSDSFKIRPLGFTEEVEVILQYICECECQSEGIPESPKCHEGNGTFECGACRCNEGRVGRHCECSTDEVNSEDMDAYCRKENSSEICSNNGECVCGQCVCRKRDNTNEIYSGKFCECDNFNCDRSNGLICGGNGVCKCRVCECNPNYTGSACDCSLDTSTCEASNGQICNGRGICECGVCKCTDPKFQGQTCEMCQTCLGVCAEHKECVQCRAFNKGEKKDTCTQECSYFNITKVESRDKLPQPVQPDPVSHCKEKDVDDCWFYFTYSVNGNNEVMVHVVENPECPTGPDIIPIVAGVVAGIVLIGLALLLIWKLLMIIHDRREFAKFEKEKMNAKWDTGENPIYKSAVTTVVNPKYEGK
Outline: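 RPMI-8866 B cells with CRISPR/Cas9 ITGB7 knockout (clonal, verified by flow cytometry) adhered to VCAM-coated wells for 1 h at 37° C in HEPES/NaCl buffer with 1 mM MnCl2, 0.1 mM CaCl2, 1% BSA, 1% DMSO. Bound cells quantified by CellTiter-Glo luminescence after washing; % inhibition versus DMSO and control, 4-parameter fit.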

[1] = RPMI-8866 cells with stable LOF mutation of the ITGB1 gene, read-out: Mean IC50 α4β7 KO^a
[2] = RPMI-8866 cells with stable LOF mutation of the ITGB7 gene, read-out: Mean IC50 α4β1 KO^b
[3] = Protocol 4, RPMI-8866 cells with LOF mutation of ITGB1, MAdCAM, read-out: Mean IC50 α4β7 KO
[4] = Protocol 5, RPMI-8866 cells with LOF mutation of ITGB7, VCAM, read-out: Mean IC50 α4β1 KO

Sequence of α4β7 integrin (P13612 34-1032): as the sequence (P13612 34-1032) above
Sequence of α4β7 integrin (P26010 20-798): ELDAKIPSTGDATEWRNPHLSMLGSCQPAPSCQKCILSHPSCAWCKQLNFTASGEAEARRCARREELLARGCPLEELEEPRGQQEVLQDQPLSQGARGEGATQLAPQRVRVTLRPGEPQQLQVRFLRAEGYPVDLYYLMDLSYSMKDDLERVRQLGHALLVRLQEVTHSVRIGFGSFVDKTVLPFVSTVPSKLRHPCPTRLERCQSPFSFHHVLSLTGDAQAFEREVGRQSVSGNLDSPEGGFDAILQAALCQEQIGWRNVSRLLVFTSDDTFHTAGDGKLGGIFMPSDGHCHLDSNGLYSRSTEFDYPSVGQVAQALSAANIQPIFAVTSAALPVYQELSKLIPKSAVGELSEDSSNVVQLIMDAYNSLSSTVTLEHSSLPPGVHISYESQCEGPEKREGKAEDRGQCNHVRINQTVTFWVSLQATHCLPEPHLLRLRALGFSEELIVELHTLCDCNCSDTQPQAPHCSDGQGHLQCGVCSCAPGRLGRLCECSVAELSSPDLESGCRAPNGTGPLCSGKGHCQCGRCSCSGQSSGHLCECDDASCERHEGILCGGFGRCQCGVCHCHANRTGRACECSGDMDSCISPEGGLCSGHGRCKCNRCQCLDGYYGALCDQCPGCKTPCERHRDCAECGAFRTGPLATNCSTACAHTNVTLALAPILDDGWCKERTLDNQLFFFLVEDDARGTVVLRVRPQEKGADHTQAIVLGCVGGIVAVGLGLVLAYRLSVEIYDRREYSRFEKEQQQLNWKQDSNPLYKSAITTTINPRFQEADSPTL

Structure (SMILES) | IC50 (α4β7 integrin; [1]) | IC50 (α4β1 integrin; [2]) | IC50 (α4β7 integrin; [3]) | IC50 (α4β1 integrin; [4])
COc1ccc(CN2CCCCC2)c(OC)c1-c1cccc2c(C[C@H](NC(=O)c3c(F)cccc3-c3ccccc3)C(=O)O)cccc12 [Compound 648] | < 10 nM | > 1000 nM | – | –
COc1cc(CN2CCC(F)(F)CC2)cc(OC)c1-c1cccc2c(C[C@H](NC(=O)C3(C(F)(F)F)CCN(CC(F)(F)F)CC3)C(=O)O)cccc12 [Compound 795] | – | – | < 10 nM | 100 to 1000 nM
COc1ccc(CN2CCC(F)C2)c(OC)c1-c1cccc2c(C[C@H](NC(=O)c3c(C)cccc3F)C(=O)O)cccc12 (some centres unmarked) [Compound 629] | < 10 nM | > 1000 nM | – | –
N#CC1(C(=O)N[C@@H](Cc2cccc3c(-c4ncc(CN5CCCCC5)c5ccccc45)cccc23)C(=O)O)CCN(CC(F)(F)F)CC1 [Compound 677] | 10 to 100 nM | > 1000 nM | – | –
COc1ccc(CCN2CCC(C)(C)CC2)c(OC)c1-c1cccc2c(C[C@H](NC(=O)C3(C(F)(F)F)CCN(CC(F)(F)F)CC3)C(=O)O)cccc12 [Compound 967] | – | – | < 10 nM | 100 to 1000 nM
CN1CCCC1c1cc(-c2cccc3c(C[C@H](NC(=O)C4(C(F)(F)F)CCN(CC(F)(F)F)CC4)C(=O)O)cccc23)c2cnccc2c1 (some centres unmarked) [Compound 532] | 10 to 100 nM | > 1000 nM | – | –
COC(=O)[C@H](Cc1cccc2c(-c3nc(CN4CCCCC4)cc4ccncc34)cccc12)NC(=O)C1(C(F)(F)F)CCN(CC(F)(F)F)CC1 [Compound 994] | – | – | 10 to 100 nM | > 1000 nM
Cn1c(=O)c(-c2cccc3c(C[C@H](NC(=O)c4c(F)cccc4F)C(=O)O)cccc23)c(C(F)(F)F)c2cc(CN)ccc21 [Compound 1051] | – | – | < 10 nM | 100 to 1000 nM
O=C(O)[C@H](Cc1cccc2c(-c3nccc4c(CN5CCC(F)CC5)cccc34)cccc12)NC(=O)C1(C(F)(F)F)CCN(CC(F)(F)F)CC1 [Compound 560] | < 10 nM | > 1000 nM | – | –
COc1ccc(CN2CCC(F)(F)CC2)c(OC)c1-c1cccc2c(C[C@H](NC(=O)C3(C(F)(F)F)CCN([C@@H]4COC[C@H]4F)CC3)C(=O)O)cccc12 [Compound 670] | 10 to 100 nM | 100 to 1000 nM | – | –
O=C(O)[C@H](Cc1cccc2c(-c3nccc4c(CN5CCC(F)(F)CC5)cccc34)cccc12)NC(=O)C1(C(F)(F)F)CCN(CC(F)(F)F)CC1 [Compound 554] | 10 to 100 nM | > 1000 nM | – | –

Results, then the compound that gave them:

IC50 (α4β7 integrin; [1]) | IC50 (α4β1 integrin; [2]) | IC50 (α4β7 integrin; [3]) | IC50 (α4β1 integrin; [4]) | Structure (SMILES)
– | – | < 10 nM | 10 to 100 nM | Cn1c(=O)c(-c2cccc3c(C[C@H](NC(=O)C4(C(F)(F)F)CCN(CC(F)F)CC4)C(=O)O)cccc23)c(C(F)(F)F)c2cc(CN3CCC(c4ccccc4)CC3)ccc21 [Compound 838]
< 10 nM | > 1000 nM | – | – | COc1cccc(CN2CCCCC2)c1-c1cccc2c(C[C@H](NC(=O)C3(C(F)(F)F)CCN(CC(F)(F)F)CC3)C(=O)O)cccc12 [Compound 566]
– | – | < 10 nM | > 1000 nM | Cc1cc(CN2CCC(C)(C)CC2)cnc1-c1cccc2c(C[C@H](NC(=O)C3(C(F)(F)F)CCN(CC(F)F)CC3)C(=O)O)cccc12 [Compound 902]
– | – | < 10 nM | 100 to 1000 nM | COc1ccc2c(c1-c1cccc3c(C[C@H](NC(=O)C4(C(F)(F)F)CCN(CC(F)(F)F)CC4)C(=O)O)cccc13)CCN(C)C2 [Compound 737]
– | – | 10 to 100 nM | 100 to 1000 nM | COc1ccc(CN2CCC(F)(F)CC2)c(OC)c1-c1cccc2c(C[C@H](NC(=O)C3(C(F)(F)F)CCN(CC(F)F)CC3)C(=O)O)cccc12 [Compound 946]
– | – | < 10 nM | 100 to 1000 nM | COc1ccc(CN2CC[C@@H](F)C2)cc1-c1cccc2c(C[C@H](NC(=O)C3(C(F)(F)F)CCN(CC(F)F)CC3)C(=O)O)cccc12 [Compound 944]
– | – | < 10 nM | 100 to 1000 nM | COc1cccc(CCN2CCCC(C)(C)C2)c1-c1cccc2c(C[C@H](NC(=O)C3(C(F)(F)F)CCN(CC(F)F)CC3)C(=O)O)cccc12 [Compound 984]
– | – | < 10 nM | 100 to 1000 nM | O=C(O)[C@H](Cc1cccc2c(-c3ncc(CN4CCC5(CCC5)C4)c4ccccc34)cccc12)NC(=O)C1(C(F)(F)F)CCN(CC(F)F)CC1 [Compound 909]
